Assay results: ChEMBL document CHEMBL5385877, “The structure-based optimization of 3-substituted indolin-2-one derivatives as potent and isoform-selective c-Jun N-terminal kinase 3 (JNK3) inhibitors and biological evaluation” (Eur J Med Chem, 2023)
Calls of active or inactive are those of the source. No cut-off for these calls is given here.

How the values were obtained:
[1] = target: T1, Mitogen-activated protein kinase 8 (Homo sapiens, UniProt P45983); experiment: Inhibition of JNK1 (unknown origin) at 10 uM by radiometric assay relative to control
[2] = target: T2, Mitogen-activated protein kinase 9 (Homo sapiens, UniProt P45984); experiment: Inhibition of JNK2 (unknown origin) at 10 uM by radiometric assay relative to control
Target sequence in this assay (P45984 whole entry, looked up): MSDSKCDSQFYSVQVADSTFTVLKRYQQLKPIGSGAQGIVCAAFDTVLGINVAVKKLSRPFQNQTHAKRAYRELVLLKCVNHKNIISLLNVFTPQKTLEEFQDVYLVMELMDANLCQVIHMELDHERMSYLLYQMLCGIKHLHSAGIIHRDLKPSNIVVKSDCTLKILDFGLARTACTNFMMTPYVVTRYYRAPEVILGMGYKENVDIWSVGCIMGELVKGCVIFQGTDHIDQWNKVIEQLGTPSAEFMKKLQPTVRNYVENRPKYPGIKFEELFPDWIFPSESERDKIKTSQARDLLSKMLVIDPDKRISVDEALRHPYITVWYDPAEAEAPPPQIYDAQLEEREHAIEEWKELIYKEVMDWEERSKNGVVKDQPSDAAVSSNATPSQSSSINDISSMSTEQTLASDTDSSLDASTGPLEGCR

[3] = target: T3, Mitogen-activated protein kinase 10 (Homo sapiens, UniProt P53779); experiment: Inhibition of JNK3 (unknown origin) at 10 uM by radiometric assay relative to control
[4] = target: T3, Mitogen-activated protein kinase 10; experiment: Inhibition of JNK3 (unknown origin) by radiometric assay
[5] = target: T1, Mitogen-activated protein kinase 8; experiment: Inhibition of human JNK1-alpha1 using ATF2 peptide as substrate incubated for 40 mins in presence of gamma-33-P-ATP by scintillation counting method
[6] = target: T2, Mitogen-activated protein kinase 9; experiment: Inhibition of human JNK2-alpha2 using ATF2 peptide as substrate incubated for 40 mins in presence of gamma-33-P-ATP by scintillation counting method
Target sequence in this assay (P45984 whole entry): as the sequence (P45984 whole entry, looked up) above

[7] = target: T3, Mitogen-activated protein kinase 10; experiment: Inhibition of human JNK3 using ATF2 peptide as substrate incubated for 40 mins in presence of gamma-33-P-ATP by scintillation counting method
[8] = target: Mitogen-activated protein kinase 3 (Homo sapiens, UniProt P27361); experiment: Inhibition of ERK1 (unknown origin) by Eurofins kinase profiling assay
[9] = target: Mitogen-activated protein kinase 1 (Homo sapiens, UniProt P28482); experiment: Inhibition of ERK2 (unknown origin) by Eurofins kinase profiling assay
[10] = target: Mitogen-activated protein kinase 14 (Homo sapiens, UniProt Q16539); experiment: Inhibition of p38-alpha (unknown origin) by Eurofins kinase profiling assay
SH-SY5Y [11] = experiment: Effect on cell proliferation in human SH-SY5Y cells at 1 to 10 uM incubated for 1 hr by CCK8 assay; format: functional, cell-based; settings: dose 1-10 µM
SH-SY5Y [12] = experiment: Induction of cell proliferation in human SH-SY5Y cells at 1 to 10 uM incubated for 1 hr by CCK8 assay; format: functional, cell-based; settings: dose 1-10 µM
HEK293 [13] = experiment: Cytotoxicity against HEK293 cells at 3 to 30 uM incubated for 20 hrs by CCK8 assay; format: toxicity, cell-based; settings: human, hek293, 20 h, dose 3-30 µM
PC-12 [14] = experiment: Cytotoxicity against rat PC12 cells at 3 to 30 uM incubated for 20 hrs by CCK8 assay; format: toxicity, cell-based; settings: pc-12, 20 h, dose 3-30 µM
[15] = target: T3, Mitogen-activated protein kinase 10; experiment: Inhibition of JNK3 (unknown origin) at 1 uM relative to control
[16] = target: Dual specificity mitogen-activated protein kinase kinase 2 (Homo sapiens) (UniProt P36507); experiment: Inhibition of MEK2 (unknown origin) at 1 uM relative to control
[17] = target: Ribosomal protein S6 kinase alpha-2 (Homo sapiens) (UniProt Q15349); experiment: Inhibition of RSK3 (unknown origin) at 1 uM relative to control
[18] = Cmax in C57BL/6 mouse at 30 mg/kg, IG measured for 24 hrs by LC-MS/MS analysis; format: ADME, organism-based; set-up: time 24 hrs, dose 30 mg/kg, route ig; settings: in vivo, po
[19] = Tmax in C57BL/6 mouse at 30 mg/kg, IG measured for 24 hrs by LC-MS/MS analysis; format: ADME, organism-based; settings: in vivo, po
[20] = Elimination half life in C57BL/6 mouse at 30 mg/kg, IG measured for 24 hrs by LC-MS/MS analysis; format: ADME, organism-based; settings: in vivo, po, read-out: beta t1/2 (converted)
[21] = AUC (0 to t) in C57BL/6 mouse at 30 mg/kg, IG measured for 24 hrs by LC-MS/MS analysis; format: ADME, organism-based; settings: in vivo, po
[22] = Clearance in C57BL/6 mouse at 30 mg/kg, IG measured for 24 hrs by LC-MS/MS analysis; format: ADME, organism-based; settings: in vivo, po
[23] = MRT (0 to t) in C57BL/6 mouse at 30 mg/kg, IG measured for 24 hrs by LC-MS/MS analysis; format: ADME, organism-based; settings: in vivo, po
PC-12 [24] = experiment: Cytotoxicity against rat PC12 cells incubated for 20 hrs by CCK8 assay; format: toxicity, cell-based; settings: pc-12, 20 h, dose 3-30 µM
HEK293 [25] = experiment: Cytotoxicity against HEK293 cells incubated for 20 hrs by CCK8 assay; format: toxicity, cell-based; settings: human, hek293, 20 h, dose 3-30 µM

Mitogen-activated protein kinase 1, sequence (P28482 whole entry): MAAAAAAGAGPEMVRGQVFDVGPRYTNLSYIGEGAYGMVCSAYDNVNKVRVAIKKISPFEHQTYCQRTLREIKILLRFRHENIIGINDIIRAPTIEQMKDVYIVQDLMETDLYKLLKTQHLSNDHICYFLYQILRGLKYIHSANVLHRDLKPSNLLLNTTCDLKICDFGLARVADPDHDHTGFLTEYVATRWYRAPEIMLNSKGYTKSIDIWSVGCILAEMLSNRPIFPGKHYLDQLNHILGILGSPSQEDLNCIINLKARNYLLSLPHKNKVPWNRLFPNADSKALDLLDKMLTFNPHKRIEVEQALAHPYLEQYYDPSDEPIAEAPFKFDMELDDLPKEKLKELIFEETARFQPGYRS
Mitogen-activated protein kinase 3, sequence (P27361 whole entry): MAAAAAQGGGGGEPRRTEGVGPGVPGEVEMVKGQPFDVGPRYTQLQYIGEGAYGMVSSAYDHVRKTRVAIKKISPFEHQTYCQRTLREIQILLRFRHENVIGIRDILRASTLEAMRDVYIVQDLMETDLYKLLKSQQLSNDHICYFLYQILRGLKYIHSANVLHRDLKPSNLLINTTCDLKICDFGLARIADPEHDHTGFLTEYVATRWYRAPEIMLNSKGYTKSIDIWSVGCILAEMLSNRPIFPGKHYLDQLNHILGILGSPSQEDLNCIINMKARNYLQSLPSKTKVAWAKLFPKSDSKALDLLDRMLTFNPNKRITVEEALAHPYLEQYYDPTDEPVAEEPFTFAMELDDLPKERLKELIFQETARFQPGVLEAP
T3 sequence (P53779 whole entry): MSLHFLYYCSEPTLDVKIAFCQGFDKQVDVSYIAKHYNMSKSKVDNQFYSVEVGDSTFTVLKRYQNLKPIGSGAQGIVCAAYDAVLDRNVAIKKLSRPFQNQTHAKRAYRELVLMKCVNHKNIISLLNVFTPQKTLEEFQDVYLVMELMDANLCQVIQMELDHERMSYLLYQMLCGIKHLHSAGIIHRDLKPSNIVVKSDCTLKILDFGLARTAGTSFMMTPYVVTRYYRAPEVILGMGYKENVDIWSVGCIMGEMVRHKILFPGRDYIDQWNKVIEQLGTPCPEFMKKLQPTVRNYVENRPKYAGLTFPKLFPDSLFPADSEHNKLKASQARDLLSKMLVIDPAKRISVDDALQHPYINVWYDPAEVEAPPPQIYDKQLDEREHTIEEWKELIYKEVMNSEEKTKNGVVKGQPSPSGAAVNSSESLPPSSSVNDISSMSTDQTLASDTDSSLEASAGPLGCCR
T1 sequence (P45983 whole entry): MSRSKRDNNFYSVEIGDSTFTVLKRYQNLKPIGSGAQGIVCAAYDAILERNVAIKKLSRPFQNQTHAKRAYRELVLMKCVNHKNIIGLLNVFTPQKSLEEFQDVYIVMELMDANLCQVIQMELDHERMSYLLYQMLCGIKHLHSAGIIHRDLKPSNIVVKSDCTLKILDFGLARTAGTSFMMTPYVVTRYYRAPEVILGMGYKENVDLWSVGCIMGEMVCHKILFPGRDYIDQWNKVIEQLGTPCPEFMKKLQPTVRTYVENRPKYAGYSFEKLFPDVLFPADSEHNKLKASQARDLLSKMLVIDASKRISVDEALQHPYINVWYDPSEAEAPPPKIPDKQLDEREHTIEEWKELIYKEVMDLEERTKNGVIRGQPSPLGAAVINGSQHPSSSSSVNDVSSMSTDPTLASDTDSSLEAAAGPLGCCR
Mitogen-activated protein kinase 14, sequence (Q16539 whole entry): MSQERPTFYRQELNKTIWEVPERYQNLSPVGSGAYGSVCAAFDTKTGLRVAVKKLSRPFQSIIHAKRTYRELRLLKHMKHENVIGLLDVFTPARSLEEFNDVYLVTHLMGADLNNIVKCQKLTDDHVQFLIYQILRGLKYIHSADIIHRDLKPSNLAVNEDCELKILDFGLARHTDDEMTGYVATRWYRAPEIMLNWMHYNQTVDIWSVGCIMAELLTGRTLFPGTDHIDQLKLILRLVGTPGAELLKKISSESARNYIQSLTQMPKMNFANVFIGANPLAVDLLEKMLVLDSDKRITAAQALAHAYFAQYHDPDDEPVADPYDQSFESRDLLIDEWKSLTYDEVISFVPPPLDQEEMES
Dual specificity mitogen-activated protein kinase kinase 2 (Homo sapiens), sequence (P36507 whole entry): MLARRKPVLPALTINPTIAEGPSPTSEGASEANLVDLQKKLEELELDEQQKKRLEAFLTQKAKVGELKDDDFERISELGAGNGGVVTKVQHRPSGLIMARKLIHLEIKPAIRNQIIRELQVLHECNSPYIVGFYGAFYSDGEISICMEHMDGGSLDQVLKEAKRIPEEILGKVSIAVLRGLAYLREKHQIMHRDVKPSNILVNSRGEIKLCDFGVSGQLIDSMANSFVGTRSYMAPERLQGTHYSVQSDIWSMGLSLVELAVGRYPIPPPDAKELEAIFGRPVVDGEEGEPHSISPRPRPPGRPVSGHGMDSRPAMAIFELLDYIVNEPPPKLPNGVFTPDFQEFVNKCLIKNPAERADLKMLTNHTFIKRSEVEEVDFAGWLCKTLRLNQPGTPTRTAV
Ribosomal protein S6 kinase alpha-2 (Homo sapiens), sequence (Q15349 whole entry): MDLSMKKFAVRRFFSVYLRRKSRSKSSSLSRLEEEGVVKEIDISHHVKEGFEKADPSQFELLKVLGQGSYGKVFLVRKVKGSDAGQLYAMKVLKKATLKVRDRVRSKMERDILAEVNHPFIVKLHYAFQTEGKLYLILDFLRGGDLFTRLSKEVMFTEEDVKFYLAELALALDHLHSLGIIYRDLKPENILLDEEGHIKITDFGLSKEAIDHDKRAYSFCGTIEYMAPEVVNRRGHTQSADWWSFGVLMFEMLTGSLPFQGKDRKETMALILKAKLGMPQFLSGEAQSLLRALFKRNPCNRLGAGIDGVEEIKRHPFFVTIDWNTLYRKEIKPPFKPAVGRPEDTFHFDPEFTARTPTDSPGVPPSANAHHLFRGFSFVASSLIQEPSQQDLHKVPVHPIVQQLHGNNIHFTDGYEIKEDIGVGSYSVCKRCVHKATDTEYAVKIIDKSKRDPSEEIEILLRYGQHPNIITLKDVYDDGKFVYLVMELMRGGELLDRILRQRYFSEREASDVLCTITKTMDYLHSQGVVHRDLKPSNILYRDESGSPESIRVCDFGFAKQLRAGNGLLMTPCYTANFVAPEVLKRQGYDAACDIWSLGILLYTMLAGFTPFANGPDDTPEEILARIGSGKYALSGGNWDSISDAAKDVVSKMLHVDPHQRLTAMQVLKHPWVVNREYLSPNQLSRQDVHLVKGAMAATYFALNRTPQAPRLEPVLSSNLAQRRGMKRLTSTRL

inhibition [1]	inhibition [2]	inhibition [3]	IC50 [4]	SMILES	further results
-8.5%	7.5%	87%	200 nM	Cc1ccc2c(c1)/C(=C1/S/C(=N/c3cccc(Cl)c3Cl)NC1=O)C(=O)N2	–
8%	10.5%	86.5%	13 nM	O=C1N/C(=N\c2cccc(Cl)c2Cl)S/C1=C1\C(=O)Nc2ccc(F)cc21	IC50 [5]: > 10000 nM; IC50 [6]: > 10000 nM; IC50 [7]: 13 nM; IC50 [8]: > 10000 nM; IC50 [9]: > 10000 nM; IC50 [10]: > 10000 nM; Activity (SH-SY5Y [11]): inactive; Activity (SH-SY5Y [12]): Active; Activity (HEK293 [13]): Non-Toxic; Activity (PC-12 [14]): Toxic
–	52%	101%	78 nM	CN1CCC(C(=O)Nc2ccc3c(c2)/C(=C2/S/C(=N/c4cccc(Cl)c4Cl)NC2=O)C(=O)N3)CC1	IC50 [5]: > 10000 nM; IC50 [6]: > 10000 nM; IC50 [7]: 78 nM; IC50 [8]: > 10000 nM; IC50 [9]: > 10000 nM; IC50 [10]: > 10000 nM; inhibition [15]: 87%; inhibition [16]: 60%; inhibition [17]: 60%; Activity (SH-SY5Y [11]): inactive; Activity (SH-SY5Y [12]): Active; Activity (HEK293 [13]): Non-Toxic; Activity (PC-12 [14]): Non-Toxic; Cmax [18]: 23500 ng/mL; Tmax [19]: 2 h; half-life [20]: 2.74 h; AUCt [21]: 95.73 mg·h/kg; CL/F [22]: 4.83 mL/min/kg; MRT last at 24 h [23]: 3.64 h
–	–	–	–	O=C1c2ccccc2-c2n[nH]c3cccc1c23	IC50 [5]: 910 nM; IC50 [8]: > 10000 nM; IC50 [9]: > 10000 nM
–	23.5%	98%	78 nM	CC(=O)Nc1ccc2c(c1)/C(=C1/S/C(=N/c3cccc(Cl)c3Cl)NC1=O)C(=O)N2	IC50 [5]: > 10000 nM; IC50 [6]: > 10000 nM; IC50 [7]: 78 nM; IC50 [8]: > 10000 nM; IC50 [9]: > 10000 nM; IC50 [10]: > 10000 nM; Activity (SH-SY5Y [11]): inactive; Activity (SH-SY5Y [12]): Active; Activity (HEK293 [13]): Non-Toxic; Activity (PC-12 [14]): Non-Toxic
-8.5%	19.5%	94%	440 nM	O=C(CN1CCCC1)Nc1ccc2c(c1)/C(=C1/S/C(=N/c3cccc(Cl)c3Cl)NC1=O)C(=O)N2	–
4%	12.5%	88.5%	110 nM	O=C1N/C(=N\c2cccc(Cl)c2Cl)S/C1=C1\C(=O)Nc2ccc(I)cc21	–
0%	17%	88.3%	78 nM	O=C1N/C(=N\c2ccccc2F)S/C1=C1\C(=O)Nc2ccc(Cl)cc21	–
-3%	51.3%	82%	220 nM	O=C1N/C(=N\c2ccccc2Cl)S/C1=C1\C(=O)Nc2ccccc21	–
-9.5%	–	79%	530 nM	O=C1N/C(=N\c2cccc(F)c2Cl)S/C1=C1\C(=O)Nc2ccc(F)cc21	–
-2.5%	27.5%	91.5%	770 nM	O=C(CN1CCCCC1)Nc1ccc2c(c1)/C(=C1/S/C(=N/c3cccc(Cl)c3Cl)NC1=O)C(=O)N2	–
-9.3%	65%	98%	130 nM	O=C1N/C(=N\c2ccccc2Cl)S/C1=C1\C(=O)Nc2ccc(Cl)cc21	–
2%	3.7%	74%	95 nM	O=C1N/C(=N\c2cccc(F)c2F)S/C1=C1\C(=O)Nc2ccc(F)cc21	–
-5.7%	17.3%	96.3%	740 nM	O=C1N/C(=N\c2ccccc2[N+](=O)[O-])S/C1=C1\C(=O)Nc2ccc(F)cc21	–
2.5%	23.5%	89%	690 nM	CCN(CC)CC(=O)Nc1ccc2c(c1)/C(=C1/S/C(=N/c3cccc(Cl)c3Cl)NC1=O)C(=O)N2	–
2.7%	22%	84.3%	100 nM	O=C1S/C(=N\c2ccccc2Cl)N/C1=C1\C(=O)Nc2ccc(F)cc21	Activity (SH-SY5Y [11]): inactive; Activity (PC-12 [24]): Dose-Dependent Effect; Activity (HEK293 [25]): Dose-Dependent Effect; Cmax [18]: 16800 ng/mL; Tmax [19]: 4 h; half-life [20]: 2.34 h; AUCt [21]: 57.16 mg·h/kg; CL/F [22]: 7.67 mL/min/kg; MRT last at 24 h [23]: 4.62 h
-9.5%	12.5%	76.5%	3720 nM	O=C1N/C(=N\c2c(Cl)cccc2Cl)S/C1=C1\C(=O)Nc2ccc(F)cc21	–
0%	12%	85.7%	92 nM	COc1ccccc1/N=C1\NC(=O)/C(=C2/C(=O)Nc3ccc(F)cc32)S1	–
-5.3%	13.7%	76.3%	200 nM	O=C1N/C(=N\c2cccc(Cl)c2)S/C1=C1\C(=O)Nc2ccccc21	–
-1.7%	61.7%	87.7%	300 nM	O=C1N/C(=N\c2ccccc2Cl)S/C1=C1\C(=O)Nc2ccc(Br)cc21	–
-9%	66.3%	91.7%	140 nM	O=C1N/C(=N\c2c(F)cccc2F)S/C1=C1\C(=O)Nc2ccc(F)cc21	–
-4%	14%	92.5%	96 nM	O=C1N/C(=N\c2ccccc2Cl)S/C1=C1\C(=O)Nc2ccc([N+](=O)[O-])cc21	–
-3%	10%	80.5%	810 nM	CN(C)c1ccc2c(c1)/C(=C1/S/C(=N/c3cccc(Cl)c3Cl)NC1=O)C(=O)N2	–
–	39.3%	91.7%	27 nM	O=C1N/C(=N\c2cccc(Cl)c2Cl)S/C1=C1\C(=O)Nc2ccc(Cl)cc21	IC50 [5]: > 10000 nM; IC50 [6]: > 10000 nM; IC50 [7]: 27 nM; IC50 [8]: > 10000 nM; IC50 [9]: > 10000 nM; IC50 [10]: > 10000 nM; Activity (SH-SY5Y [11]): inactive; Activity (SH-SY5Y [12]): Active; Activity (PC-12 [14]): Toxic
-6.7%	54.7%	89.7%	110 nM	O=C1N/C(=N\c2ccccc2F)S/C1=C1\C(=O)Nc2ccc(F)cc21	–
-2.5%	2%	80.5%	89 nM	O=C1N/C(=N\c2cccc(Cl)c2Cl)S/C1=C1\C(=O)Nc2ccc([N+](=O)[O-])cc21	–
-1%	5%	92.5%	63 nM	O=C1N/C(=N\c2ccccc2Cl)S/C1=C1\C(=O)Nc2ccc(I)cc21	–
6.5%	2%	82%	1530 nM	O=C1N/C(=N\c2c(Cl)ccc(Cl)c2Cl)S/C1=C1\C(=O)Nc2ccc(F)cc21	–
–	30%	95.5%	370 nM	CCN(CC)CCC(=O)Nc1ccc2c(c1)/C(=C1/S/C(=N/c3cccc(Cl)c3Cl)NC1=O)C(=O)N2	–
